# Experiments:
# Type in all cases: in vivo
# [1] = system: large (Lg) crabgrass (Digitaria sanguinalis); assay: Test C postemergence; details: scale 0 to 100, 0 is no effect, 100 is complete control
# Description: (§1) Seeds of plant species selected from blackgrass (Alopecurus myosuroides), Italian ryegrass (Lolium multiflorum), winter wheat (Triticum aestivum), galium (catchweed bedstraw, Galium aparine), corn (Zea mays), large (Lg) crabgrass (Digitaria sanguinalis), giant foxtail (Setaria faberii), johnsongrass (Sorghum halepense), lambsquarters (Chenopodium album), morningglory (Ipomoea coccinea), yellow nutsedge (Cyperus esculentus), pigweed (Amaranthus retroflexus), ragweed (common ragweed, Ambrosia elatior), soybean (Glycine max), barnyardgrass (Echinochloa crus-galli), oilseed rape (Brassica napus), waterhemp (common waterhemp, Amaranthus rudis), and velvetleaf (Abutilon theophrasti) were planted into a blend of loam soil and sand and treated preemergence with test chemicals formulated in a non-phytotoxic solvent mixture which included a surfactant. At the same time, plants selected from these crop and weed species and also chickweed (common chickweed, Stellaria media), kochia (Kochia scoparia), and wild oat (Avena fatua), were planted in pots containing Sunshine Redi-Earth® planting medium comprising spaghnum peat moss, vermiculite, starter nutrients and dolomitic limestone and treated with postemergence applications of test chemicals formulated in the same manner. Plants ranged in height from 2 to 18 cm (1- to 4-leaf stage) for postemergence treatments. Treated plants and controls were maintained in a greenhouse for 13 to 15 days, after which time all species were compared to controls and visually evaluated. Plant response ratings, summarized in Table C, are based on a scale of 0 to 100 where 0 is no effect and 100 is complete control. A dash (-) response means no test result.
# [2] = system: pigweed (Amaranthus retroflexus); assay: Test C postemergence; details: scale 0 to 100, 0 is no effect, 100 is complete control
# Description: as §1
# wild oat (Avena fatua) = assay: Test C postemergence; details: scale 0 to 100, 0 is no effect, 100 is complete control
# Description: as §1
# [3] = system: oilseed rape (Brassica napus); assay: Test C postemergence; details: scale 0 to 100, 0 is no effect, 100 is complete control
# Description: as §1
# [4] = system: lambsquarters (Chenopodium album); assay: Test C postemergence; details: scale 0 to 100, 0 is no effect, 100 is complete control
# Description: as §1
# [5] = system: ragweed (common ragweed, Ambrosia elatior); assay: Test C postemergence; details: scale 0 to 100, 0 is no effect, 100 is complete control
# Description: as §1
# [6] = system: chickweed (common chickweed, Stellaria media); assay: Test C postemergence; details: scale 0 to 100, 0 is no effect, 100 is complete control
# Description: as §1
# [7] = system: pigweed (Amaranthus retroflexus); assay: Test A postemergence application; details: approx. 10 days
# Description: (§2) Seeds of plant species selected from barnyardgrass (Echinochloa crus-galli), kochia (Kochia scoparia), ragweed (common ragweed, Ambrosia elatior), Italian ryegrass (Lolium multiflorum), giant foxtail (Setaria faberii), and pigweed (Amaranthus retroflexus) were planted into a blend of loam soil and sand and treated preemergence with a directed soil spray using test chemicals formulated in a non-phytotoxic solvent mixture which included a surfactant. At the same time, plants selected from these weed species and also wheat (Triticum aestivum), corn (Zea mays), blackgrass (Alopecurus myosuroides), and galium (catchweed bedstraw, Galium aparine) were planted in pots containing the same blend of loam soil and sand and treated with postemergence applications of test chemicals formulated in the same manner. Plants ranged in height from 2 to 10 cm and were in the one- to two-leaf stage for the postemergence treatment. Treated plants and untreated controls were maintained in a greenhouse for approximately 10 days, after which time all treated plants were compared to untreated controls and visually evaluated for injury. Plant response ratings, summarized in Table A, are based on a 0 to 100 scale where 0 is no effect and 100 is complete control. A dash (-) response means no test result.
# [8] = system: barnyardgrass (Echinochloa crus-galli); assay: Test A postemergence application; details: approx. 10 days
# Description: as §2
# [9] = system: blackgrass (Alopecurus myosuroides); assay: Test A postemergence application; details: approx. 10 days
# Description: as §2
# corn (Zea mays) = assay: Test A postemergence application; details: approx. 10 days
# Description: as §2
# [10] = system: giant foxtail (Setaria faberii); assay: Test A postemergence application; details: approx. 10 days
# Description: as §2
# [11] = system: wheat (Triticum aestivum); assay: Test A postemergence application; details: approx. 10 days
# Description: as §2
# [12] = system: ragweed (common ragweed, Ambrosia elatior); assay: Test A postemergence application; details: approx. 10 days
# Description: as §2
# kochia (Kochia scoparia) = assay: Test A postemergence application; details: approx. 10 days
# Description: as §2
# [13] = system: galium (catchweed bedstraw, Galium aparine); assay: Test A postemergence application; details: approx. 10 days
# Description: as §2
# [14] = system: Italian ryegrass (Lolium multiflorum); assay: Test A postemergence application; details: approx. 10 days
# Description: as §2
smiles,measurement,setting,value
O=c1cccc(Oc2ncc(Cl)cn2)n1-c1ncc(Cl)cn1 [Compound 6],"Plant response rating, Crabgrass, Large",[1]; 16 g ai/ha,5
same,"Plant response rating, Crabgrass, Large",[1]; 31 g ai/ha,15
same,"Plant response rating, Crabgrass, Large",[1]; 62 g ai/ha,5
same,"Plant response rating, Crabgrass, Large",[1]; 125 g ai/ha,20
same,"Plant response rating, Pigweed",[2]; 16 g ai/ha,70
same,"Plant response rating, Pigweed",[2]; 31 g ai/ha,70
same,"Plant response rating, Pigweed",[2]; 62 g ai/ha,75
same,"Plant response rating, Pigweed",[2]; 125 g ai/ha,85
same,"Plant response rating, Oat, Wild",wild oat (Avena fatua); 16 g ai/ha,0
same,"Plant response rating, Oat, Wild",wild oat (Avena fatua); 31 g ai/ha,0
same,"Plant response rating, Oat, Wild",wild oat (Avena fatua); 62 g ai/ha,0
same,"Plant response rating, Oat, Wild",wild oat (Avena fatua); 125 g ai/ha,0
same,"Plant response rating, Oilseed Rape",[3]; 16 g ai/ha,5
same,"Plant response rating, Oilseed Rape",[3]; 31 g ai/ha,15
same,"Plant response rating, Oilseed Rape",[3]; 62 g ai/ha,20
same,"Plant response rating, Oilseed Rape",[3]; 125 g ai/ha,10
same,"Plant response rating, Lambsquarters",[4]; 16 g ai/ha,20
same,"Plant response rating, Lambsquarters",[4]; 31 g ai/ha,35
same,"Plant response rating, Lambsquarters",[4]; 62 g ai/ha,65
same,"Plant response rating, Lambsquarters",[4]; 125 g ai/ha,70
same,"Plant response rating, Ragweed",[5]; 16 g ai/ha,25
same,"Plant response rating, Ragweed",[5]; 31 g ai/ha,45
same,"Plant response rating, Ragweed",[5]; 62 g ai/ha,40
same,"Plant response rating, Ragweed",[5]; 125 g ai/ha,70
same,"Plant response rating, Chickweed",[6]; 16 g ai/ha,50
same,"Plant response rating, Chickweed",[6]; 31 g ai/ha,55
same,"Plant response rating, Chickweed",[6]; 62 g ai/ha,60
same,"Plant response rating, Chickweed",[6]; 125 g ai/ha,55
same,"Plant response rating (0 to 100 scale, 0 no effect, 100 complete control), Pigweed",[7]; 31 g ai/ha,80
same,"Plant response rating (0 to 100 scale, 0 no effect, 100 complete control), Pigweed",[7]; 125 g ai/ha,90
same,"Plant response rating (0 to 100 scale, 0 no effect, 100 complete control), Barnyardgrass",[8]; 31 g ai/ha,10
same,"Plant response rating (0 to 100 scale, 0 no effect, 100 complete control), Barnyardgrass",[8]; 125 g ai/ha,30
same,"Plant response rating (0 to 100 scale, 0 no effect, 100 complete control), Blackgrass",[9]; 31 g ai/ha,10
same,"Plant response rating (0 to 100 scale, 0 no effect, 100 complete control), Blackgrass",[9]; 125 g ai/ha,50
same,"Plant response rating (0 to 100 scale, 0 no effect, 100 complete control), Corn",corn (Zea mays); 31 g ai/ha,0
same,"Plant response rating (0 to 100 scale, 0 no effect, 100 complete control), Corn",corn (Zea mays); 125 g ai/ha,20
same,"Plant response rating (0 to 100 scale, 0 no effect, 100 complete control), Foxtail, Giant",[10]; 31 g ai/ha,10
same,"Plant response rating (0 to 100 scale, 0 no effect, 100 complete control), Foxtail, Giant",[10]; 125 g ai/ha,60
same,"Plant response rating (0 to 100 scale, 0 no effect, 100 complete control), Wheat",[11]; 31 g ai/ha,0
same,"Plant response rating (0 to 100 scale, 0 no effect, 100 complete control), Wheat",[11]; 125 g ai/ha,0
same,"Plant response rating (0 to 100 scale, 0 no effect, 100 complete control), Ragweed",[12]; 31 g ai/ha,30
same,"Plant response rating (0 to 100 scale, 0 no effect, 100 complete control), Ragweed",[12]; 125 g ai/ha,50
same,"Plant response rating (0 to 100 scale, 0 no effect, 100 complete control), Kochia",kochia (Kochia scoparia); 31 g ai/ha,80
same,"Plant response rating (0 to 100 scale, 0 no effect, 100 complete control), Kochia",kochia (Kochia scoparia); 125 g ai/ha,90
same,"Plant response rating (0 to 100 scale, 0 no effect, 100 complete control), Galium",[13]; 31 g ai/ha,60
same,"Plant response rating (0 to 100 scale, 0 no effect, 100 complete control), Galium",[13]; 125 g ai/ha,90
same,"Plant response rating (0 to 100 scale, 0 no effect, 100 complete control), Ryegrass, Italian",[14]; 31 g ai/ha,0
same,"Plant response rating (0 to 100 scale, 0 no effect, 100 complete control), Ryegrass, Italian",[14]; 125 g ai/ha,20
